The results in this text go back to US20240408222A1, “COMPOUNDS, PHARMACEUTICAL COMPOSITIONS, AND METHODS FOR THE TREATMENT, PREVENTION, OR MANAGEMENT OF HYPERPRO[…]” (VINCERX PHARMA GMBH, priority 2021, published 2024).

The structures appear in SMILES notation. Where a name gives a salt, the structure may show the parent alone.

Holding throughout (assay): Cytotoxicity assay (Version 2, automated, AC50) with/without neutrophil elastase
Common to all, as to conditions: Version 2, activity concentration at −50%

One test deals with SUM149. The class given is cell-based. As to the method: (§1) Cultivation of cells was performed according to standard procedures with the media recommended by the provider. The cells, in a total volume of 100 μL, were seeded in a 96-well plate with a white bottom (#3610). After a 24 h incubation period at 37° C. and […], the medium was exchanged by adding 90 μL fresh medium. The treatment started by adding the test compound in 10 μL of culture medium to the cells in triplicates. Concentrations ranging from 10^−5 M to 10^−13 M were chosen. Two identically treated sets of samples were prepared. One set was treated with the test compound alone, whereas to the second set the compound and 10 nM elastase was added followed by a 72 h incubation period at 37° C. and […]. The proliferation was detected using the MTT assay (ATCC). At the end of the incubation period the MTT reagent was added to all samples for 4 h. Lysis of the cells followed by addition of the detergent was done overnight. The formed dye was detected at 570 nm. The proliferation of untreated but otherwise identically handled cells was define as the 100% value.
(§2) The cytotoxicity assay (Version 2) was performed as described above. Some changes were applied as the assays were performed in an automated fashion and the IC50 values determination was changed. Here the change in metabolic activity of the cells, in percent, was calculated by normalization of the measured values to the absorbance values of medium containing wells without cells (═−100%) and the absorbance of the DMSO-treated cells (═0%). AC50 values (activity concentration at −50%) were determined by means of a 4 parameter Hill-fit using GeneData Screener software.

In a further test the test system is HT29. It is filed as cell-based, human. As for the experimental part: as §1, §2
Another test has as its system 786-O. It is filed as cell-based, human. As to the method:
as §1, §2

A further test has as its system NCI H292. It is filed as cell-based, human. As for the experimental part:
as §1, §2

Where [1] appears, read: SUM149, with (+) neutrophil elastase.
The mark [2] stands for this setting: SUM149, without (−) neutrophil elastase.
[3] abbreviates: HT29, with (+) neutrophil elastase.
Where [4] appears, read: HT29, without (−) neutrophil elastase.
Where [5] appears, read: without (−) neutrophil elastase.
Where [6] appears, read: NCI H292, with (+) neutrophil elastase.
The mark [7] stands for this setting: NCI H292, without (−) neutrophil elastase.

Take `CCCNC(=O)Nc1cccc(S(=O)(=O)Nc2cccc([C@H](CC(=O)O)NC(=O)Nc3ccc(NC(=O)NCCOCCOCCOCCC(=O)NCCCC[C@H](NC(=O)CCOCCOCCOCCNC(=O)Nc4ccc(NC(=O)N[C@@H](CC(=O)O)c5cccc(NS(=O)(=O)c6cccc(NC(=O)NCCC)c6)c5)cc4)C(=O)NCCN(C)CCN(C)CCN(C)CC(=O)N[C@@H](CC(N)=O)C(=O)N4CCC[C@H]4C(=O)N[C@H](C(=O)N=[S@@](C)(=O)Cc4cc5cc(c4)O[C@@H](C)CCOc4cc(F)ccc4-c4nc(ncc4F)N5)C(C)C)cc3)c2)c1` (relative stereo) [Compound 29]: the concentration at half-maximal activity (AC50) in the test on SUM149 (setting [1]) was not above 0.01 µM; with SUM149 (setting [2]), 0.1 to 1 µM; in the test with HT29 (setting [3]), not above 0.01 µM; with HT29 (setting [4]), 0.1 to 1 µM; in the test with 786-O (with (+) neutrophil elastase), not above 0.01 µM; in the test on 786-O (setting [5]), more than 1 µM. Besides, the figures for the AC50 with NCI H292 (setting [6]) and in the test on NCI H292 (setting [7]) were not above 0.01 µM and 0.1 to 1 µM, respectively.

As for `CCCNC(=O)Nc1cccc(S(=O)(=O)Nc2cccc([C@@H](CC(=O)O)NC(=O)Nc3ccc(NC(=O)NCCOCCOCCOCCC(=O)NCCCC[C@H](NC(=O)CCOCCOCCOCCNC(=O)Nc4ccc(NC(=O)N[C@H](CC(=O)O)c5cccc(NS(=O)(=O)c6cccc(NC(=O)NCCC)c6)c5)cc4)C(=O)NCCOCCOCCOCCC(=O)N[C@@H](CC(=O)O)C(=O)N4CCC[C@H]4C(=O)N[C@H](C(=O)N=[S@](C)(=O)Cc4cc5cc(c4)O[C@H](C)CCOc4cc(F)ccc4-c4nc(ncc4F)N5)C(C)C)cc3)c2)c1` (relative stereo) [Compound 31], the AC50 was not above 0.01 µM in the test with SUM149 (setting [1]); 0.1 to 1 µM in the test on SUM149 (setting [2]); not above 0.01 µM in the test with HT29 (setting [3]); more than 1 µM with HT29 (setting [4]); not above 0.01 µM in the test with 786-O (with (+) neutrophil elastase); more than 1 µM in the test with 786-O (setting [5]). The AC50 is not above 0.01 µM in the test on NCI H292 (setting [6]) and 0.1 to 1 µM in the test on NCI H292 (setting [7]).

Regarding `CCCNC(=O)Nc1cccc(S(=O)(=O)Nc2cccc([C@H](CC(=O)O)NC(=O)Nc3ccc(NC(=O)NCCOCCOCCOCCC(=O)N[C@@H](CCCCNC(=O)CCOCCOCCOCCNC(=O)Nc4ccc(NC(=O)N[C@H](CC(=O)O)c5cccc(NS(=O)(=O)c6cccc(NC(=O)NCCC)c6)c5)cc4)C(=O)NCCOCCOCCOCCC(=O)N[C@@H](CC(=O)O)C(=O)N4CCC[C@H]4C(=O)N[C@H](C(=O)N=S(C)(=O)Cc4cc5nc(c4)OCCCOc4cc(F)ccc4-c4cc(ncc4F)N5)C(C)C)cc3)c2)c1` (relative stereo) [Compound 32], the AC50 in the test on SUM149 (setting [1]) is not above 0.01 µM; with SUM149 (setting [2]), 0.1 to 1 µM; in the test with HT29 (setting [3]) it was not above 0.01 µM; with HT29 (setting [4]), more than 1 µM; in the test with 786-O (with (+) neutrophil elastase) it was not above 0.01 µM; in the test on 786-O (setting [5]), 0.1 to 1 µM. The figures for the AC50 in the test with NCI H292 (setting [6]) and in the test on NCI H292 (setting [7]) were not above 0.01 µM and 0.1 to 1 µM, respectively.

For the molecule `CCCNC(=O)Nc1cccc(S(=O)(=O)Nc2cccc([C@@H](CC(=O)O)NC(=O)Nc3ccc(NC(=O)NCCOCCOCCOCCC(=O)N[C@@H](CC(=O)O)C(=O)N4CCC[C@H]4C(=O)N[C@H](C(=O)N=S(C)(=O)Cc4cc5cc(c4)OCCCCOc4cc(F)ccc4-c4nc(ncc4F)N5)C(C)C)cc3)c2)c1` (relative stereo) [Compound 36], the AC50 with SUM149 (setting [1]) is 0.011 to 0.1 µM; in the test with SUM149 (setting [2]), 0.1 to 1 µM; in the test with HT29 (setting [3]) it was 0.011 to 0.1 µM; with HT29 (setting [4]), 0.1 to 1 µM; in the test on 786-O (with (+) neutrophil elastase) it was 0.011 to 0.1 µM; in the test on 786-O (setting [5]), 0.1 to 1 µM. The AC50 was in the range of 0.011 to 0.1 µM in the test on NCI H292 (setting [6]) and 0.1 to 1 µM in the test with NCI H292 (setting [7]).

As for `CCCNC(=O)Nc1cccc(S(=O)(=O)Nc2cccc([C@@H](CC(=O)O)NC(=O)Nc3ccc(NC(=O)NCCOCCOCCOCCC(=O)N[C@@H](CC(=O)O)C(=O)N4CCC[C@H]4C(=O)N[C@@H](C(=O)N=[S@@](C)(=O)Cc4cc5cc(c4)O[C@@H](C)CCOc4cc(F)ccc4-c4nc(ncc4F)N5)C(C)C)cc3)c2)c1` (relative stereo) [Compound 39, N-(14-{4-[({(1R)-2-carboxy-1-[3-({3-[(propylcarbamoyl)amino]benzene-1-sulfonyl}amino)phenyl]ethyl}carbamoyl)amino]anilino}-14-oxo-4,7,10-trioxa-13-azatetradecanan-1-oyl)-L-alpha-aspartyl-L-prolyl-N—[(R*)—{[(4R*)-15,19-difluoro-4-methyl-3,4-dihydro-2H,11H-12,16-(azeno)-10,6-(metheno)-1,5,11,13-benzodioxadiazacyclooctadecin-8-yl]methyl}(methyl)oxo-lambda^6-sulfanylidene]-D-valinamide], the AC50 was not above 0.01 µM with SUM149 (setting [1]); 0.1 to 1 µM in the test with SUM149 (setting [2]); not above 0.01 µM in the test with HT29 (setting [3]); 0.1 to 1 µM in the test with HT29 (setting [4]); not above 0.01 µM in the test on 786-O (with (+) neutrophil elastase); 0.1 to 1 µM in the test on 786-O (setting [5]). Besides, the AC50 with NCI H292 (setting [6]) is not above 0.01 µM; with NCI H292 (setting [7]), 0.1 to 1 µM.

For the molecule `CCCNC(=O)Nc1cccc(S(=O)(=O)Nc2cccc([C@@H](CC(=O)O)NC(=O)Nc3ccc(NC(=O)NCCOCCOCCOCCC(=O)N[C@@H](CC(=O)O)C(=O)N4CCC[C@H]4C(=O)N[C@H](C(=O)N=[S@](C)(=O)Cc4cc5nc(c4)O[C@@H](C)CCCCOc4cc(F)ccc4-c4cc(ncc4F)N5)C(C)C)cc3)c2)c1` (relative stereo) [Compound 55], the AC50 with SUM149 (setting [1]) was not above 0.01 µM; in the test with SUM149 (setting [2]), more than 1 µM; in the test on HT29 (setting [3]), 0.011 to 0.1 µM; with HT29 (setting [4]), more than 1 µM; in the test on 786-O (with (+) neutrophil elastase) it was 0.011 to 0.1 µM; in the test with 786-O (setting [5]), more than 1 µM. Also, the AC50 in the test on NCI H292 (setting [6]) is 0.011 to 0.1 µM; in the test with NCI H292 (setting [7]), more than 1 µM.

In the case of `CCCNC(=O)Nc1cccc(S(=O)(=O)Nc2cccc([C@@H](CC(=O)O)NC(=O)Nc3ccc(NC(=O)NCCOCCOCCOCCC(=O)N[C@@H](CC(=O)O)C(=O)N4CCC[C@H]4C(=O)N[C@H](C(=O)N=[S@](C)(=O)Cc4cc5nc(c4)O[C@H](C)CCCCOc4cc(F)ccc4-c4cc(ncc4F)N5)C(C)C)cc3)c2)c1` (relative stereo) [Compound 56], the AC50 is 0.011 to 0.1 µM in the test with SUM149 (setting [1]); 0.1 to 1 µM in the test on SUM149 (setting [2]); 0.011 to 0.1 µM with HT29 (setting [3]); more than 1 µM in the test on HT29 (setting [4]); 0.011 to 0.1 µM with 786-O (with (+) neutrophil elastase); more than 1 µM in the test on 786-O (setting [5]). Also, the values for the AC50 with NCI H292 (setting [6]) and in the test with NCI H292 (setting [7]) were 0.011 to 0.1 µM and more than 1 µM, respectively.

Regarding `CCCNC(=O)Nc1cccc(S(=O)(=O)Nc2cccc([C@@H](CC(=O)O)NC(=O)Nc3ccc(NC(=O)NCCOCCOCCOCCC(=O)N[C@@H](CC(=O)OCCC[N+](C)(C)C)C(=O)N4CCC[C@H]4C(=O)N[C@H](C(=O)N=S(C)(=O)Cc4cc5cc(c4)OCCCCOc4cc(F)ccc4-c4nc(ncc4F)N5)C(C)C)cc3)c2)c1` (single isomer, unassigned) [Compound 20, trifluoroacetate], the AC50 with SUM149 (setting [1]) was 0.011 to 0.1 µM; in the test on SUM149 (setting [2]), 0.1 to 1 µM; with HT29 (setting [3]), 0.011 to 0.1 µM; in the test with HT29 (setting [4]), more than 1 µM; with 786-O (with (+) neutrophil elastase), 0.011 to 0.1 µM; with 786-O (setting [5]) it was more than 1 µM. Further, the values for the AC50 in the test on NCI H292 (setting [6]) and with NCI H292 (setting [7]) were 0.011 to 0.1 µM and more than 1 µM, respectively.

Consider `CCCNC(=O)Nc1cccc(S(=O)(=O)Nc2cccc([C@@H](CC(=O)O)NC(=O)Nc3ccc(NC(=O)NCCOCCOCCOCCC(=O)N[C@@H](CC(=O)OCCCCN(C)C)C(=O)N4CCC[C@H]4C(=O)N[C@H](C(=O)N=S(C)(=O)Cc4cc5cc(c4)OCCCCOc4cc(F)ccc4-c4nc(ncc4F)N5)C(C)C)cc3)c2)c1` (single isomer, unassigned) [Compound 21], for which the AC50 was 0.011 to 0.1 µM in the test on SUM149 (setting [1]); 0.1 to 1 µM in the test on SUM149 (setting [2]); 0.011 to 0.1 µM with HT29 (setting [3]); more than 1 µM in the test on HT29 (setting [4]); 0.011 to 0.1 µM in the test with 786-O (with (+) neutrophil elastase); more than 1 µM in the test with 786-O (setting [5]). The AC50 in the test with NCI H292 (setting [6]) lay in the range of 0.011 to 0.1 µM; with NCI H292 (setting [7]), 0.1 to 1 µM.

With `CCCNC(=O)Nc1cccc(S(=O)(=O)Nc2cccc([C@@H](CC(=O)O)NC(=O)Nc3ccc(NC(=O)NCCN(C)CCN(C)CCN(C)CC(=O)N[C@@H](CC(N)=O)C(=O)N4CCC[C@H]4C(=O)N[C@H](C(=O)N=[S@@](C)(=O)Cc4cc5cc(c4)O[C@@H](C)CCOc4cc(F)ccc4-c4nc(ncc4F)N5)C(C)C)cc3)c2)c1` (single isomer, unassigned) [Compound 24], the concentration at half-maximal activity (AC50) in the test with SUM149 (setting [1]) was not above 0.01 µM; in the test with SUM149 (setting [2]) it was 0.1 to 1 µM; in the test with HT29 (setting [3]), not above 0.01 µM; in the test with HT29 (setting [4]) it was 0.1 to 1 µM; in the test on 786-O (with (+) neutrophil elastase) it was not above 0.01 µM; in the test with 786-O (setting [5]) it was 0.1 to 1 µM. Besides, the AC50 is not above 0.01 µM in the test on NCI H292 (setting [6]) and 0.1 to 1 µM in the test on NCI H292 (setting [7]).

One may read the AC50 as the concentration giving half of the maximal activity seen. The low end stands for activity at low concentration, the high end for activity only at high concentration.
